In patent US11414385B2, “Compounds and methods for treating, detecting, and identifying compounds to treat apicomplexan parasitic diseases” (The University of Chicago, priority 2015, dated 2022):
Entries after “also recorded” stand apart in the source; their conditions may differ.

What was measured:
[1] = tested on: T. gondii RH and Prugniaud strain tachyzoites; test: Tachyzoite infection in mice; type: in vivo, Toxoplasma gondii; conditions: for efficacy against Prugniaud (Type 2) tachyzoites in mice: 25 mg/kg daily
Method: Ability of compounds to abrogate tachyzoites multiplication was assessed using an in vivo imaging system (IVIS). To facilitate this we have T. gondii strains from each of the 3 major lineages expressing the luciferase gene. In these studies mice are injected intraperitoneally with tachyzoites and parasite proliferation followed up to 30 days post infection. Removal of brains at 30 days allows parasite quantitation by bioluminescence ex vivo using the IVIS. As an alternative method to improve screening efficiency and scalability it is possible for initial screening to use zebrafish with histopathology and visualization as shown in FIG. 6. Quantitation also was performed using QT PCR as described for mice or in translucent Casper zebrafish with parasites with fluors or luciferase to screen rapidly. Tachyzoites and bradyzoites in cysts were used for IP infection and compounds given intraperitoneally.
To test type II parasites, we used T. gondii Me49 and Prugneaud parasites^S39.

[2] = tested on: Toxoplasma gondii (Pru strain expressing luciferase) tachyzoites; test: Toxoplasma in vivo, IVIS luminescence in mice; conditions: 5 mg/kg/day IP
Method: IVIS. Mice were infected intraperitoneally with 20×10^3 Toxoplasma gondii (Pru strain expressing luciferase) tachyzoites. Treatment commenced 2 hours later with JAG21 (5 mg/kg) which was dissolved in DMSO and administered intraperitoneally in a total volume of 0.05 ml. Mice were imaged every second day starting on day 4 post infection using a IVIS Spectrum (Caliper Life Sciences) for a 1 minute exposures, with medium binning, 20 minutes post injection with 150 mg/kg of D-luciferin potassium salt solution.

Row | SMILES | efficacy against Prugniaud (Type 2) tachyzoites in mice [1] | efficacy against RH tachyzoites in mice ([1]; 25 mg/kg daily intraperitoneally, RH-YFP) | efficacy against Prugniaud (Type 2) tachyzoites in mice ([1]; listed as MJM 170) | toxicity in mice ([1]; 25 mg/kg for 5 days) | effect on T. gondii tachyzoites in mice [2]
1 | Cc1[nH]c2c(c(=O)c1-c1ccc(Oc3ccccc3)cc1)CCCC2 [MJM170] | highly efficacious | highly efficacious; also recorded: eliminates active infection | reduces Type 2 parasites | without toxicity | 
2 | Cc1[nH]c2c(c(=O)c1-c1ccc(Oc3ccc(OC(F)(F)F)cc3)cc1)CCCC2 [JAG21, 2-methyl-3-(4-(4-(trifluoromethoxy)phenoxy)phenyl)-5,6,7,8-tetrahydroquinolin-4(1H)-one] |  |  |  |  | protects against Toxoplasma gondii tachyzoites; also recorded: cleared; also recorded: eliminates T. gondii tachyzoites
